How the values were obtained:
[1] = Log P by HPLC on reversed phase columns (EEC directive 79/831 Annex V.A8); type: physicochemical; conditions: [a] LC-UV, acidic range, 0.1% formic acid in water and acetonitrile as eluent
Description: Measurement of Log P values was performed according to EEC directive 79/831 Annex V.A8 by HPLC (High Performance Liquid Chromatography) on reversed phase columns with the following methods: [a] Log P value is determined by measurement of LC-UV, in an acidic range, with 0.1% formic acid in water and acetonitrile as eluent (linear gradient from 10% acetonitrile to 95% acetonitrile). [b] Log P value is determined by measurement of LC-UV, in a neutral range, with 0.001 molar ammonium acetate solution in water and acetonitrile as eluent (linear gradient from 10% acetonitrile to 95% acetonitrile). Calibration was done with straight-chain alkan2-ones (with 3 to 16 carbon atoms) with known Log P values (measurement of Log P values using retention times with linear interpolation between successive alkanones). Lambda-max-values were determined using UV-spectra from 200 nm to 400 nm and the peak values of the chromatographic signals.

Uromyces appendiculatus = test: In vivo preventive test on Uromyces appendiculatus (bean rust); conditions: 500 ppm of active ingredient; bean plants, preventive spray, evaluated 11 days after inoculation
Description: (§1) Example: In Vivo Preventive Test on Uromyces appendiculatus (Bean Rust) [table] The active ingredients are made soluble and homogenized in a mixture of Dimethyl sulfoxide/Acetone/Tween® 80 and then diluted in water to the desired concentration. The young plants of bean are treated by spraying the active ingredient prepared as described above. Control plants are treated only with an aqueous solution of Acetone/Dimethyl sulfoxide/Tween® 80. After 24 hours, the plants are contaminated by spraying the leaves with an aqueous suspension of Uromyces appendiculatus spores. The contaminated bean plants are incubated for 24 hours at 20° C. and at 100% relative humidity and then for 10 days at 20° C. and at 70-80% relative humidity. The test is evaluated 11 days after the inoculation. 0% means an efficacy which corresponds to that of the control plants while an efficacy of 100% means that no disease is observed.

Puccinia recondita = test: In vivo preventive test on Puccinia recondita (brown rust on wheat); conditions: 10 ppm of active ingredient; wheat plants, preventive spray, evaluated 11 days after inoculation
Description: as §1, with “Puccinia recondita (Brown Rust on Wheat)” for “Uromyces appendiculatus (Bean Rust)”, “wheat” for “bean”, “Puccinia recondita” for “Uromyces appendiculatus”

| Structure (SMILES) | LogP [1] | efficacy (Uromyces appendiculatus) | efficacy (Puccinia recondita) |
| --- | --- | --- | --- |
| O=C(Nc1ccc(F)cc1-c1ccc(Cl)c(Cl)c1)c1c(C(F)F)ccnc1C(F)F [Example I-31] | 3.96^[a] | at least 70% |  |
| O=C(Nc1ccccc1Oc1cccc(Cl)c1)c1cccnc1C(F)F [Example I-06] | 3.29^[a] |  | at least 70% |
